Key:
recombinant Aurora A = biological target: T1, recombinant Aurora A (Homo sapiens, UniProt O14965); experiment: Aurora A (Aurora 2) inhibition assay, Z'-Lyte kinase assay; type: biochemical; settings: ATP 10 μM, 1 h
T1 construct: purchased Upstate, Lake Placid, N.Y
T1 sequence (O14965 1-403): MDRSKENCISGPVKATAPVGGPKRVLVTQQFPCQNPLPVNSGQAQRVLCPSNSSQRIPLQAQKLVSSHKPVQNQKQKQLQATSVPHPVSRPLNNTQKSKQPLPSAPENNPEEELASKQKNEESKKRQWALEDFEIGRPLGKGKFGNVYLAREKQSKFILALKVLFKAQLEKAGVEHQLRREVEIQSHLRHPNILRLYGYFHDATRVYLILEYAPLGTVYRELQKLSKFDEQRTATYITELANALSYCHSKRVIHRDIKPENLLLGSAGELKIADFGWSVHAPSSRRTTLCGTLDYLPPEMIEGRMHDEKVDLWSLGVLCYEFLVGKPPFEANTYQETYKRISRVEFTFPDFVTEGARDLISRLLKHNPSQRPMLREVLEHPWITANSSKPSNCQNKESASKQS
Protocol: Compounds were tested for their potency against recombinant Aurora A (Upstate, Lake Placid, N.Y.) using the PanVera Z′-Lyte kinase assay kit—Ser/Thr 1 peptide (Invitrogen, Carlsbad, Calif.). Assays were carried out in kinase assay buffer (50 mM HEPES, pH 7.5, 10 mM MgCl2, 5 mM EGTA, 0.05% Brij-35, 2 mM DTT). Test compounds were initially dissolved in DMSO at 100× the highest tested concentration, then serially diluted to 4× test concentrations in kinase assay buffer. Next, Aurora A (final concentration 200-500 ng/mL), Z′-Lyte Ser/Thr 1 peptide (final concentration 2 μM) and ATP (final concentration 10 μM) were added according to the manufacturer's instructions. Assays were carried out in half-area 96-well white polystyrene assay plates (Corning, Corning, N.Y.) in a final volume of 20 μl. The reaction was allowed to proceed for 1 h at room temperature in the dark, at which point the development reagent and stop reagent were added according to the manufacturer's instructions. Coumarin (Ex. 400 nm, Em. 465 nm) and fluorescein (Ex. 400 nm, Em. 565 nm) fluorescence values were measured on a SpectraFluor Plus plate reader (Tecan, Durham, N.C.). The emission ratio (coumarin/fluorescein) was determined and used to calculate the percent phosphorylation for each well. Wells containing substrate but no kinase and wells containing a phosphopeptide control were used to set 0% and 100% phosphorylation values, respectively. Typically 20-40% of the substrate was phosphorylated in wells without inhibitor. Dose-response curves of relative Aurora A activity vs. inhibitor concentration were plotted with Grafit (Erithacus Software, Horley, Surrey, UK).

HCT116 cells = experiment: Whole cell cytotoxicity assay, Sulforhodamine B; type: cell-based; settings: Homo sapiens, HCT-116, HCT116, 96 hours incubation, SRB; for GI50: read-out: GI50 HCT116 cell growth; for IC50: read-out: IC50 values in this assay (HCT116 cell growth)
Outline: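 HCT116 cells (500/well) in DMEM/10% FBS/2 mM glutamine were preincubated 24 h, then exposed to compound for 96 h at 37 °C, 5% CO2, in duplicate. Cells were fixed with TCA and stained with sulforhodamine B (A570). GI50, TGI and LC50 were derived relative to a time-zero plate and an untreated control.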

[1] = group with IC50 greater than 100 nM

Row | IC50 (recombinant Aurora A) [µM] | IC50 (recombinant Aurora A; [1]) [µM] | Structure (SMILES) | GI50 (HCT116 cells) [µM] | IC50 (HCT116 cells) [µM]
1 | ≤ 0.1 | – | Cc1cc(Nc2cc(N3CCN(C)CC3)nc(-c3cc4ccccc4o3)n2)n[nH]1 [Compound 1, 2-(benzofuran-2-yl)-N-(5-methyl-1H-pyrazol-3-yl)-6-(4-methylpiperazin-1-yl)pyrimidin-4-amine] | ≤ 1 | –
2 | ≤ 0.1 | – | Cc1cc(Nc2cc(N3CCN(C)CC3)nc(-c3cc4ccccc4n3C)n2)n[nH]1 [Compound 2, 2-(1-methyl-1H-indol-2-yl)-N-(5-methyl-1H-pyrazol-3-yl)-6-(4-methylpiperazin-1-yl)pyrimidin-4-amine] | ≤ 1 | –
3 | ≤ 0.1 | – | Cc1cc(Nc2cc(N3CCC(O)CC3)nc(-c3cc4ccccc4n3C)n2)n[nH]1 [Compound 3, 1-(6-(5-methyl-1H-pyrazol-3-ylamino)-2-(1-methyl-1H-indol-2-yl)pyrimidin-4-yl)piperidin-4-ol] | – | 1 to 10
4 | – | ≤ 1 | Cc1cc(Nc2cc(N(C)CCN(C)C)nc(-c3cc4ccccc4n3C)n2)n[nH]1 [Compound 4, N^4-(2-(dimethylamino)ethyl)-N^4-methyl-2-(1-methyl-1H-indol-2-yl)-N^6-(5-methyl-1H-pyrazol-3-yl)pyrimidine-4,6-diamine] | ≤ 1 | –
5 | – | ≤ 1 | Cc1cc(Nc2cc(NCCN3CCOCC3)nc(-c3cc4ccccc4n3C)n2)n[nH]1 [Compound 5, 2-(1-methyl-1H-indol-2-yl)-N^4-(5-methyl-1H-pyrazol-3-yl)-N^6-(2-morpholinoethyl)pyrimidine-4,6-diamine] | – | 1 to 10
6 | ≤ 0.1 | – | CC(=O)N1CCN(c2cc(Nc3cc(C)[nH]n3)nc(-c3cc4ccccc4n3C)n2)CC1 [Compound 6, 1-(4-(6-(5-methyl-1H-pyrazol-3-ylamino)-2-(1-methyl-1H-indol-2-yl)pyrimidin-4-yl)-piperazin-1-yl)ethanone] | ≤ 1 | –
7 | – | ≤ 1 | Cc1cc(Nc2cc(NC3CCOCC3)nc(-c3cc4ccccc4n3C)n2)n[nH]1 [Compound 7, N^4-(tetrahydro-2H-pyran-4-yl)-2-(1-methyl-1H-indol-2-yl)-N^6-(5-methyl-1H-pyrazol-3-yl)pyrimidine-4,6-diamine] | – | 1 to 10
8 | – | ≤ 1 | Cc1cc(Nc2cc(N(C)CCN(C)C)nc(-c3ccccc3)n2)n[nH]1 [Compound 9, N^4-(2-(dimethylamino)ethyl)-N^4-methyl-N^6-(5-methyl-1H-pyrazol-3-yl)-2-phenylpyrimidine-4,6-diamine] | ≤ 1 | –
9 | ≤ 0.1 | – | COCCNc1cc(Nc2cc(C)[nH]n2)nc(-c2ccccc2)n1 [Compound 10, N^4-(2-methoxyethyl)-N^6-(5-methyl-1H-pyrazol-3-yl)-2-phenylpyrimidine-4,6-diamine] | – | 1 to 10
10 | ≤ 0.1 | – | Cc1cc(Nc2cc(NCCN3CCOCC3)nc(-c3ccccc3)n2)n[nH]1 [Compound 11, N^4-(5-methyl-1H-pyrazol-3-yl)-N^6-(2-morpholinoethyl)-2-phenylpyrimidine-4,6-diamine] | ≤ 1 | –
11 | ≤ 0.1 | – | Cc1cc(Nc2cc(NC3CCOCC3)nc(-c3ccccc3)n2)n[nH]1 [Compound 12, N^4-(tetrahydro-2H-pyran-4-yl)-N^6-(5-methyl-1H-pyrazol-3-yl)-2-phenylpyrimidine-4,6-diamine] | ≤ 1 | –
12 | – | ≤ 1 | Cc1cc(Nc2cc(NCCN3CCN(C)CC3)nc(-c3ccccc3)n2)n[nH]1 [Compound 13, N^4-(5-methyl-1H-pyrazol-3-yl)-N^6-(2-(4-methylpiperazin-1-yl)ethyl)-2-phenylpyrimidine-4,6-diamine] | ≤ 1 | –
13 | – | ≤ 1 | Cc1cc(Nc2cc(N3CCN(C)CC3)nc(-c3ccco3)n2)n[nH]1 [Compound 14, 2-(furan-2-yl)-N-(5-methyl-1H-pyrazol-3-yl)-6-(4-methylpiperazin-1-yl)-pyrimidin-4-amine] | – | 1 to 10
14 | – | ≤ 1 | Cc1cc(Nc2cc(NC3CCOCC3)nc(-c3ccc(F)cc3)n2)n[nH]1 [Compound 19, 2-(4-fluorophenyl)-N^4-(5-methyl-1H-pyrazol-3-yl)-N^6-(tetrahydro-2H-pyran-4-yl)pyrimidine-4,6-diamine] | – | 1 to 10
15 | – | ≤ 1 | Cc1cc(Nc2cc(NC3CCOCC3)nc(-c3ccc(Cl)cc3)n2)n[nH]1 [Compound 22, 2-(4-chlorophenyl)-N^4-(5-methyl-1H-pyrazol-3-yl)-N^6-(tetrahydro-2H-pyran-4-yl)pyrimidine-4,6-diamine] | – | 1 to 10
16 | ≤ 0.1 | – | COc1cccc(-c2nc(Nc3cc(C)[nH]n3)cc(NC3CCOCC3)n2)c1 [Compound 29, 2-(3-methoxyphenyl)-N^4-(5-methyl-1H-pyrazol-3-yl)-N^6-(tetrahydro-2H-pyran-4-yl)pyrimidine-4,6-diamine] | – | 1 to 10
17 | ≤ 0.1 | – | Cc1cc(Nc2cc(N3CCN(C)CC3)nc(-c3ccc(F)cc3)n2)n[nH]1 [Compound 32, 2-(4-fluorophenyl)-N-(5-methyl-1H-pyrazol-3-yl)-6-(4-methylpiperazin-1-yl)pyrimidin-4-amine] | ≤ 1 | –
18 | ≤ 0.1 | – | Cc1cc(Nc2cc(N3CCN(C)CC3)nc(-c3ccc(Cl)cc3)n2)n[nH]1 [Compound 35, 2-(4-chlorophenyl)-N-(5-methyl-1H-pyrazol-3-yl)-6-(4-methylpiperazin-1-yl)pyrimidin-4-amine] | – | 1 to 10
19 | – | ≤ 1 | Cc1cc(Nc2cc(N3CCN(C)CC3)nc(-c3ccccc3Cl)n2)n[nH]1 [Compound 37, 2-(2-chlorophenyl)-N-(5-methyl-1H-pyrazol-3-yl)-6-(4-methylpiperazin-1-yl)pyrimidin-4-amine] | – | 1 to 10
20 | ≤ 0.1 | – | Cc1ccc(-c2nc(Nc3cc(C)[nH]n3)cc(N3CCN(C)CC3)n2)cc1 [Compound 38, N-(5-methyl-1H-pyrazol-3-yl)-6-(4-methylpiperazin-1-yl)-2-p-tolylpyrimidin-4-amine] | ≤ 1 | –
21 | ≤ 0.1 | – | Cc1cccc(-c2nc(Nc3cc(C)[nH]n3)cc(N3CCN(C)CC3)n2)c1 [Compound 39, N-(5-methyl-1H-pyrazol-3-yl)-6-(4-methylpiperazin-1-yl)-2-m-tolylpyrimidin-4-amine] | ≤ 1 | –
22 | – | ≤ 1 | Cc1cc(Nc2cc(N3CCN(C)CC3)nc(-c3ccccc3C)n2)n[nH]1 [Compound 40, N-(5-methyl-1H-pyrazol-3-yl)-6-(4-methylpiperazin-1-yl)-2-o-tolylpyrimidin-4-amine] | – | 1 to 10
23 | ≤ 0.1 | – | COc1ccc(-c2nc(Nc3cc(C)[nH]n3)cc(N3CCN(C)CC3)n2)cc1 [Compound 41, 2-(4-methoxyphenyl)-N-(5-methyl-1H-pyrazol-3-yl)-6-(4-methylpiperazin-1-yl)pyrimidin-4-amine] | ≤ 1 | –
24 | – | ≤ 1 | Cc1cc(Nc2cc(N(C)CCN(C)C)nc(-c3cccc(Cl)c3)n2)n[nH]1 [Compound 49, 2-(3-chlorophenyl)-N^4-(2-(dimethylamino)ethyl)-N^4-methyl-N^6-(5-methyl-1H-pyrazol-3-yl)pyrimidine-4,6-diamine] | ≤ 1 | –
25 | – | ≤ 1 | Cc1cccc(-c2nc(Nc3cc(C)[nH]n3)cc(N(C)CCN(C)C)n2)c1 [Compound 52, N^4-(2-(dimethylamino)ethyl)-N^4-methyl-N^6-(5-methyl-1H-pyrazol-3-yl)-2-m-tolylpyrimidine-4,6-diamine] | ≤ 1 | –
26 | – | ≤ 1 | COc1ccc(-c2nc(Nc3cc(C)[nH]n3)cc(N(C)CCN(C)C)n2)cc1 [Compound 54, N^4-(2-(dimethylamino)ethyl)-2-(4-methoxyphenyl)-N^4-methyl-N^6-(5-methyl-1H-pyrazol-3-yl)pyrimidine-4,6-diamine] | ≤ 1 | –
27 | – | ≤ 1 | COCCN(C)c1cc(Nc2cc(C)[nH]n2)nc(-c2cccc(Cl)c2)n1 [Compound 62, 2-(3-chlorophenyl)-N^4-(2-methoxyethyl)-N^4-methyl-N^6-(5-methyl-1H-pyrazol-3-yl)pyrimidine-4,6-diamine] | – | 1 to 10

Reference: patent US20090029992A1, “SUBSTITUTED PYRAZOLE COMPOUNDS” (priority 2007, published 2009)
